From patent publication US11596648B2, “Emollient topical disinfectants” (priority 2016, dated 2023)
Read-outs that look alike come from different tables or passages of the source.

What was measured:
[1] = cited from earlier work
[2] = cited from earlier work; remark: listed apart in the source
[3] = rats, 1 hour; cited from earlier work
[4] = Iodine vapor detection with iodine sensitive paper disc in vial lid (Example 4); conditions: acetate buffer; cyclodextrin 50 mM
Description: Solutions of these cyclodextrins were prepared in acetate buffer or propylene glycol, both containing molecular iodine as follows. Cyclodextrins were weighed and added to vials. Saturated solutions of molecular iodine (Alfa Aesar 14248 Lot 104Z003) were then prepared in either: (a) […] acetate buffer (pH 4.5); or (b) propylene glycol.
Aliquots of each solution of the different cyclodextrins were added to vials to a final cyclodextrin concentration of 50 mM. […] The screw-top lid of each vial was fitted with an iodine sensitive paper disc (Fluka #37215, Lot SZBF1310V) that fit tightly in the lid so the paper was exposed to the atmosphere in the vial which would allow the paper to react with molecular iodine that was in the vapor phase.
At time points of: one (1) hour; six (6) hours; and twenty-four (24) hours, the color of the indicator paper on the inside of the screw-top lids were examined and photographed.

[5] = Potassium iodide starch paper coloration versus time, vapor pressure of molecular iodine (Example 5); conditions: cyclodextrin 50 mM; for reduction in vapor pressure of molecular iodine in the acetate buffer (ranking): 0.1M acetate buffer pH 4.5; for ability to reduce the vapor pressure of molecular iodine in an aqueous environment (conclusion): acetate buffer
Text: Alpha cyclodextrin (cat. number C4642, Sigma Life Sciences, Lot 2X SLBK4630V, CAS 10016-20-3), beta cyclodextrin (cat. number C4767, Sigma Life Sciences, Lot MKBV2085V, CAS 7585-39-9), gamma cyclodextrin (cat. number C4892, Sigma Life Sciences, Lot SLBL4156V, CAS 17465-86-0), methyl beta cyclodextri, (cat. number C4555, Sigma Life Sciences, Lot WXBC0745V, CAS 128446-36-6) and 2-hydroxypropyl-beta-cyclodextrin (cat. number H107, Sigma Life Sciences, Lot WXBC0083V, CAS 128446-35-5) were weighed into vials.
Aliquots of saturated molecular iodine in either propylene glycol or 0.1M acetate buffer (pH 4.5) were added to the vials to yield a final cyclodextrin concentration of 50 mM. The samples were lightly vortexed to dissolve the cyclodextrins. Control vials were prepared consisting of saturated iodine in either propylene glycol or 0.1M acetate buffer pH 4.5.
Analytical potassium iodide starch paper (Fluka #37215, Lot SZBF1310V) was cut into circle and placed inside the screw-top lid of the vials in a manner that held the paper in place once the lid was screwed onto the vial.
Provided in FIGS. 2A-2L are pictures of the starch paper taken at different time points to document the color of the starch paper versus time of exposure to the atmosphere inside of the vial. The operating assumption was that the color of the starch paper would be proportional to the time of exposure to the concentration of molecular iodine in the atmosphere inside of the vial.
The concentration of molecular iodine in the atmosphere inside of the vial is proportional to the vapor pressure of dissolved molecular iodine in the liquid phase.

[6] = Viscosity with Brookfield DV2T viscometer (Example 7); assay type: physicochemical; conditions: for viscosity: extrapolated to zero shear
Description: Viscosity was measured using a Brookfield DV2T viscometer which allowed for the precise control of the temperature at which the viscosity was measured. The Brookfield DV2T was programmed to measured viscosity at different shear rates by systematically ramping the spindle (CP-40 or CP-52) speed up and then down as shown in FIG. 4A for propylene glycol at 25° C.
The viscosity values were fitted to a curve and extrapolated to the zero shear value to arrive at a final estimate for viscosity.
One series of samples was prepared without molecular iodine and a second series was prepared that contained 800 ppm molecular iodine. The viscosity of these samples was measured as described above using an up-down rate ramp program. The results were fitted to an Ostwald model, i.e. stress versus shear rate curve fit, and the consistency constant was reported as the viscosity.

Q: With `II` [Molecular iodine, molecular iodine] as the compound, how does the “maximum iodine that can build up in a closed container” value ([1]; 25° C., standard atmospheric pressure) read?
A: ≤ 394 ppm

Q: What about the vapor pressure ([1]; 25° C.) of the same compound?
A: 0.3 mm

Q: And the vapor pressure ([1]; 38.7° C.)?
A: 1 mm

Q: What about the permissible exposure limit ([2]; NIOSH, OSHA) of the same compound?
A: 0.1 ppm

Q: What about the “concentration with severe eye irritation” value ([2]; after 2 minutes) of the same compound?
A: 1.63 ppm

Q: What about the “concentration at which humans can work undisturbed” value ([2]; iodine vapor, inhalation) of the same compound?
A: 0.1 ppm

Q: What about the “concentration at which humans work with difficulty” value ([2]; iodine vapor, inhalation) of the same compound?
A: 0.15-0.2 ppm

Q: And the “concentration that humans cannot tolerate” value ([2]; iodine vapor, inhalation)?
A: ≥ 0.3 ppm

Q: What about the “level at which odor is detected” value ([2]; iodine vapor) of the same compound?
A: about 0.9 ppm

Q: What about the “lowest lethal atmospheric concentration” value [3] of the same compound?
A: 80 ppm

Q: Which “color of iodine indicator paper / iodine vapor at 6 hours” value [4] does the source give for `OC[C@H]1O[C@@H]2O[C@H]3[C@H](O)[C@@H](O)[C@@H](O[C@H]4[C@H](O)[C@@H](O)[C@@H](O[C@H]5[C@H](O)[C@@H](O)[C@@H](O[C@H]6[C@H](O)[C@@H](O)[C@@H](O[C@H]7[C@H](O)[C@@H](O)[C@@H](O[C@H]8[C@H](O)[C@@H](O)[C@@H](O[C@H]9[C@H](O)[C@@H](O)[C@@H](O[C@H]1[C@H](O)[C@H]2O)O[C@@H]9CO)O[C@@H]8CO)O[C@@H]7CO)O[C@@H]6CO)O[C@@H]5CO)O[C@@H]4CO)O[C@@H]3CO` [gamma cyclodextrin, γ-cyclodextrin] here?
A: clearly detected

Q: What about the “color of iodine indicator paper / iodine vapor at 24 hours” value [4] of the same compound?
A: deeply stained

Q: For methyl-β-cyclodextrin, which “effect on vapor pressure of molecular iodine in an aqueous environment” value [4] is on record?
A: reduces the vapor pressure of molecular iodine

Q: And the “reduction in vapor pressure of molecular iodine in the acetate buffer (ranking)” value [5]?
A: greatest reduction in vapor pressure

Q: What about the “ability to reduce the vapor pressure of molecular iodine in an aqueous environment (conclusion)” value [5] of the same compound?
A: most effective

Q: Which viscosity ([6]; 25° C.) does the source give for `CC(O)CO` (stereo not drawn) [propylene glycol] here?
A: 59 cP

Q: And the viscosity ([6]; 33° C.)?
A: 95 cP

Q: And the flow behaviour ([6]; viscosity versus shear)?
A: behaves like a Newtonian fluid

Q: With `OC[C@H]1O[C@@H]2O[C@H]3[C@H](O)[C@@H](O)[C@@H](O[C@H]4[C@H](O)[C@@H](O)[C@@H](O[C@H]5[C@H](O)[C@@H](O)[C@@H](O[C@H]6[C@H](O)[C@@H](O)[C@@H](O[C@H]7[C@H](O)[C@@H](O)[C@@H](O[C@H]8[C@H](O)[C@@H](O)[C@@H](O[C@H]1[C@H](O)[C@H]2O)O[C@@H]8CO)O[C@@H]7CO)O[C@@H]6CO)O[C@@H]5CO)O[C@@H]4CO)O[C@@H]3CO` [β-cyclodextrin] as the compound, how does the “color of iodine indicator paper / iodine vapor at 6 hours” value [4] read?
A: clearly detected

Q: And the “color of iodine indicator paper / iodine vapor at 24 hours” value [4]?
A: deeply stained

Q: For “hydroxypropyl-β-cyclodextrin [hyroxypropyl-β-cyclodextrin]”, which “color of iodine indicator paper / iodine vapor at 24 hours” value [4] is on record?
A: clearly detected

Q: And the “effect on vapor pressure of molecular iodine in an aqueous environment” value [4]?
A: reduces the vapor pressure of molecular iodine

Q: And the “reduction in vapor pressure of molecular iodine in the acetate buffer (ranking)” value [5]?
A: greatest reduction in vapor pressure

Q: What about the “ability to reduce the vapor pressure of molecular iodine in an aqueous environment (conclusion)” value [5] of the same compound?
A: most effective
